# Like-named read-outs stand apart in the source and are kept apart here.
# Columns and labels:
# S. aureus GC 1131 = assay: MIC, broth microdilution; details: Staphylococcus aureus, GC1131, S. aureus GC 1131
# E. faecalis GC 2265 = assay: MIC, broth microdilution; details: Enterococcus faecalis, GC2265, E. faecalis GC 2265
# E. coli GC 2272 = assay: MIC, broth microdilution; details: Escherichia coli, GC2272, E. coli GC 2272
# S. aureus GC 6466 = assay: MIC, broth microdilution; details: Staphylococcus aureus, GC6466, S. aureus GC 6466
# S. epidermidis GC 4935 = assay: MIC, broth microdilution; details: Staphylococcus epidermidis, GC4935, S. epidermidis GC 4935
# S. pneumoniae+ GC 4465 = assay: MIC, broth microdilution; details: Streptococcus pneumoniae, S. pneumoniae+ GC 4465
# E. faecalis GC 4555 = assay: MIC, broth microdilution; details: Enterococcus faecalis, GC4555, E. faecalis GC 4555
# S. aureus GC 6469 = assay: MIC, broth microdilution; details: Staphylococcus aureus, GC6469, S. aureus GC 6469
# E. faecium GC 2243 = assay: MIC, broth microdilution; details: Enterococcus faecium, GC2243, E. faecium GC 2243
# c. albicans GC 3066 = assay: MIC, broth microdilution
# E. coli GC 2236 = assay: MIC, broth microdilution; details: Escherichia coli, GC2236, E. coli GC 2236
# Description: Antimicrobial susceptibility testing. The in vitro activities of the antibiotics are determined by the broth microdilution method as recommended by the National Committee for Clinical Laboratory Standards (NCCLS) (1). Mueller-Hinton II broth (MHBII)(BBL Cockeysville, Md.) is the medium employed in the testing procedures. Microtiter plates containing serial dilutions of each antimicrobial agent are inoculated with each organism to yield the appropriate density (10^5 CFU/ml) in a 100 μl final volume. The plates are incubated for 18-22 hours at 35° C. in ambient air. […] Standard Pharmacological Test Procedures
# Presented in Tables I-XIII are representative compounds of Formula I which were evaluated against a panel of 40 selected gram-positive and gram-negative bacteria strains by pre-incubation in water, mouse serum or human serum. Representative compounds were first incubated in mouse serum for an hour prior to the in vitro testing against a panel of selected gram-positive and gram-negative bacteria strains. All compounds were also pre-incubated in water for an hour prior to testing as control. Representative compounds of Formula I were incubated in human serum prior to MIC determination.
# S. aureus GC 1079 = assay: MIC, broth microdilution; details: Staphylococcus aureus, GC1079, S. aureus GC 1079
# S. pyogenes GC 4563 = assay: MIC, broth microdilution; details: Streptococcus pyogenes, GC4563, S. pyogenes GC 4563
# S. aureus GC 4536 = assay: MIC, broth microdilution; details: Staphylococcus aureus, GC4536, S. aureus GC 4536
# E. coli GC 6465 = assay: MIC, broth microdilution; details: Escherichia coli, GC6465, E. coli GC 6465
# E. coli = assay: Range of MIC for E. coli strains; details: Escherichia coli
# Description: Antimicrobial susceptibility testing. The in vitro activities of the antibiotics are determined by the broth microdilution method as recommended by the National Committee for Clinical Laboratory Standards (NCCLS) (1). Mueller-Hinton II broth (MHBII)(BBL Cockeysville, Md.) is the medium employed in the testing procedures. Microtiter plates containing serial dilutions of each antimicrobial agent are inoculated with each organism to yield the appropriate density (10^5 CFU/ml) in a 100 μl final volume. The plates are incubated for 18-22 hours at 35° C. in ambient air.
# Representative compounds were first incubated in mouse serum for an hour prior to the in vitro testing against a panel of selected gram-positive and gram-negative bacteria strains. All compounds were also pre-incubated in water for an hour prior to testing as control. Representative compounds of Formula I were incubated in human serum prior to MIC determination.
# Staph. = assay: Range of MIC for Staph. strains, including MRSA; details: Staphylococcus aureus
# E. coli GC 1073 = assay: MIC, broth microdilution; details: Escherichia coli, GC1073, E. coli GC 1073
# E. coli GC 2233 = assay: MIC, broth microdilution; details: Escherichia coli, GC2233, E. coli GC 2233
# E. coli GC 2234 = assay: MIC, broth microdilution; details: Escherichia coli, GC2234, E. coli GC 2234
# [1] = c. albicans GC 3066, Water pre-incubation
# [2] = 20 h, read-out: Range of MIC, E. coli (Mouse Serum)
# [3] = read-out: Minimum inhibitory concentration (MIC), E. coli (mouse serum)
# [4] = read-out: Range of MIC, E. coli (Water)
# [5] = MRSA, read-out: Minimum inhibitory concentration (MIC), Staph. (mouse serum)
# [6] = MRSA, read-out: Minimum inhibitory concentration (MIC), Staph. (water)
# [7] = MRSA, read-out: Range of MIC, Staph (Mouse Serum)
# [8] = MRSA, read-out: Range of MIC, Staph (Water)
structure (smiles),measurement,setting,value
"CCCCN(CC(=O)Nc1cc(N(C)C)c2c(c1O)C(=O)C1=C(O)[C@]3(O)C(=O)C(C(N)=O)=C(O)[C@@H](N(C)C)C3CC1C2)C(=O)OCOC(=O)c1ccc(C)cc1 (stereo partly drawn) [Example 3, ({[(2-{[(7S,10aS)-9-(aminocarbonyl)-4,7-bis(dimethylamino)-1,8,10a,11-tetrahydroxy-10,12-dioxo-5,5a,6,6a,7,10,10a,12-octahydrotetracen-2-yl]amino}-2-oxoethyl)(butyl)amino]carbonyl}oxy)methyl 4-methylbenzoate]",MIC,S. aureus GC 1131; Mouse Serum pre-incubation,2 µg/mL
same,MIC,S. aureus GC 1131; Water pre-incubation,4 µg/mL
same,MIC,E. faecalis GC 2265; Mouse Serum pre-incubation,2 µg/mL
same,MIC,E. faecalis GC 2265; Water pre-incubation,32 µg/mL
same,MIC,E. coli GC 2272; Mouse Serum pre-incubation,1 µg/mL
same,MIC,E. coli GC 2272; Water pre-incubation,> 64 µg/mL
same,MIC,S. aureus GC 6466; Mouse Serum pre-incubation,1 µg/mL
same,MIC,S. aureus GC 6466; Water pre-incubation,4 µg/mL
same,MIC,S. epidermidis GC 4935; Mouse Serum pre-incubation,4 µg/mL
same,MIC,S. epidermidis GC 4935; Water pre-incubation,8 µg/mL
same,MIC,S. pneumoniae+ GC 4465; Mouse Serum pre-incubation,1 µg/mL
same,MIC,S. pneumoniae+ GC 4465; Water pre-incubation,2 µg/mL
same,MIC,E. faecalis GC 4555; Mouse Serum pre-incubation,1 µg/mL
same,MIC,E. faecalis GC 4555; Water pre-incubation,8 µg/mL
same,MIC,S. aureus GC 6469; Mouse Serum pre-incubation,4 µg/mL
same,MIC,S. aureus GC 6469; Water pre-incubation,32 µg/mL
same,MIC,E. faecium GC 2243; Mouse Serum pre-incubation,1 µg/mL
same,MIC,E. faecium GC 2243; Water pre-incubation,4 µg/mL
same,MIC,"c. albicans GC 3066; Candida albicans, GC3066",> 64 µg/mL
same,MIC,c. albicans GC 3066; [1],>64 UG/ML
same,MIC,E. coli GC 2236; Mouse Serum pre-incubation,1 µg/mL
same,MIC,E. coli GC 2236; Water pre-incubation,> 64 µg/mL
same,MIC,S. aureus GC 1079; Mouse Serum pre-incubation,2 µg/mL
same,MIC,S. aureus GC 1079; Water pre-incubation,32 µg/mL
same,MIC,S. pyogenes GC 4563; Mouse Serum pre-incubation,0.12 µg/mL
same,MIC,S. pyogenes GC 4563; Water pre-incubation,0.25 µg/mL
same,MIC,S. aureus GC 4536; Mouse Serum pre-incubation,2 µg/mL
same,MIC,S. aureus GC 4536; Water pre-incubation,4 µg/mL
same,MIC,E. coli GC 6465; Mouse Serum pre-incubation,8 µg/mL
same,MIC,E. coli GC 6465; Water pre-incubation,> 64 µg/mL
same,MIC,E. coli; [2],1 to 2 µg/mL
same,MIC,E. coli; [3],1 to 2 µg/mL
same,MIC,"E. coli; read-out: Minimum inhibitory concentration (MIC), E. coli (water)",> 64 µg/mL
same,MIC,E. coli; [4],> 64 µg/mL
same,MIC,Staph.; [5],1 to 4 µg/mL
same,MIC,Staph.; [6],4 to 32 µg/mL
same,MIC,Staph.; [7],1 to 4 µg/mL
same,MIC,Staph.; [8],4 to 32 µg/mL
same,MIC,E. coli GC 1073; Mouse Serum pre-incubation,2 µg/mL
same,MIC,E. coli GC 1073; Water pre-incubation,> 64 µg/mL
same,MIC,E. coli GC 2233; Mouse Serum pre-incubation,1 µg/mL
same,MIC,E. coli GC 2233; Water pre-incubation,> 64 µg/mL
same,MIC,E. coli GC 2234; Mouse Serum pre-incubation,1 µg/mL
same,MIC,E. coli GC 2234; Water pre-incubation,> 64 µg/mL
"CCCCN(CC(=O)Nc1cc(N(C)C)c2c(c1O)C(=O)C1=C(O)[C@]3(O)C(=O)C(C(N)=O)=C(O)[C@@H](N(C)C)[C@@H]3C[C@@H]1C2)C(=O)OCOC(=O)c1ccc(F)cc1 [Example 4, ({[(2-{[(5aR,6aS,7S,10aS)-9-(aminocarbonyl)-4,7-bis(dimethylamino)-1,8,10a,11-tetrahydroxy-10,12-dioxo-5,5a,6,6a,7,10,10a,12-octahydrotetracen-2-yl]amino}-2-oxoethyl)(butyl)amino]carbonyl}oxy)methyl 4-fluorobenzoate]",MIC,S. aureus GC 1131; Mouse Serum pre-incubation,1 µg/mL
same,MIC,S. aureus GC 1131; Water pre-incubation,4 µg/mL
same,MIC,E. faecalis GC 2265; Mouse Serum pre-incubation,2 µg/mL
same,MIC,E. faecalis GC 2265; Water pre-incubation,8 µg/mL
same,MIC,E. coli GC 2272; Mouse Serum pre-incubation,1 µg/mL
same,MIC,E. coli GC 2272; Water pre-incubation,64 µg/mL
same,MIC,S. aureus GC 6466; Mouse Serum pre-incubation,0.5 µg/mL
same,MIC,S. aureus GC 6466; Water pre-incubation,2 µg/mL
same,MIC,S. epidermidis GC 4935; Mouse Serum pre-incubation,2 µg/mL
same,MIC,S. epidermidis GC 4935; Water pre-incubation,4 µg/mL
same,MIC,S. pneumoniae+ GC 4465; Mouse Serum pre-incubation,2 µg/mL
same,MIC,S. pneumoniae+ GC 4465; Water pre-incubation,4 µg/mL
same,MIC,E. faecalis GC 4555; Mouse Serum pre-incubation,1 µg/mL
same,MIC,E. faecalis GC 4555; Water pre-incubation,8 µg/mL
same,MIC,S. aureus GC 6469; Mouse Serum pre-incubation,2 µg/mL
same,MIC,S. aureus GC 6469; Water pre-incubation,16 µg/mL
same,MIC,E. faecium GC 2243; Mouse Serum pre-incubation,0.5 µg/mL
same,MIC,E. faecium GC 2243; Water pre-incubation,2 µg/mL
same,MIC,"c. albicans GC 3066; Candida albicans, GC3066",> 64 µg/mL
same,MIC,c. albicans GC 3066; [1],>64 UG/ML
same,MIC,E. coli GC 2236; Mouse Serum pre-incubation,1 µg/mL
same,MIC,E. coli GC 2236; Water pre-incubation,64 µg/mL
same,MIC,S. aureus GC 1079; Mouse Serum pre-incubation,1 µg/mL
same,MIC,S. aureus GC 1079; Water pre-incubation,4 µg/mL
same,MIC,S. pyogenes GC 4563; Mouse Serum pre-incubation,0.12 µg/mL
same,MIC,S. pyogenes GC 4563; Water pre-incubation,0.25 µg/mL
same,MIC,S. aureus GC 4536; Mouse Serum pre-incubation,1 µg/mL
same,MIC,S. aureus GC 4536; Water pre-incubation,4 µg/mL
same,MIC,E. coli GC 6465; Mouse Serum pre-incubation,4 µg/mL
same,MIC,E. coli GC 6465; Water pre-incubation,> 64 µg/mL
same,MIC,E. coli; [2],0.5 to 2 µg/mL
same,MIC,"E. coli; read-out: Minimum inhibitory concentration (MIC), E. coli (Human Serum)",8 to 32 µg/mL
same,MIC,E. coli; [3],0.5 to 2 µg/mL
same,MIC,Staph.; [5],0.5 to 2 µg/mL
same,MIC,Staph.; [6],2 to 16 µg/mL
same,MIC,Staph.; [7],0.5 to 2 µg/mL
same,MIC,Staph.; [8],2 to 16 µg/mL
same,MIC,"Staph.; read-out: Minimum inhibitory concentration (MIC), Staph (Human Serum)",0.5 to 4 µg/mL
same,MIC,"Staph.; read-out: Minimum inhibitory concentration (MIC), Staph (Water)",2 to 8 µg/mL
same,MIC,E. coli GC 1073; Mouse Serum pre-incubation,1 µg/mL
same,MIC,E. coli GC 1073; Water pre-incubation,> 64 µg/mL
same,MIC,E. coli GC 2233; Mouse Serum pre-incubation,1 µg/mL
same,MIC,E. coli GC 2233; Water pre-incubation,64 µg/mL
same,MIC,E. coli GC 2234; Mouse Serum pre-incubation,1 µg/mL
same,MIC,E. coli GC 2234; Water pre-incubation,64 µg/mL
"CCCN(CC(=O)Nc1cc(N(C)C)c2c(c1O)C(=O)C1=C(O)[C@]3(O)C(=O)C(C(N)=O)=C(O)[C@@H](N(C)C)[C@@H]3C[C@@H]1C2)C(=O)OCOC(=O)c1ccc(C)cc1 [Example 5, ({[(2-{[(5aR,6aS,7S,10aS)-9-(aminocarbonyl)-4,7-bis(dimethylamino)-1,8,10a,11-tetrahydroxy-10,12-dioxo-5,5a,6,6a,7,10,10a,12-octahydrotetracen-2-yl]amino}-2-oxoethyl)(propyl)amino]carbonyl}oxy)methyl 4-methylbenzoate]",MIC,S. aureus GC 1131; Mouse Serum pre-incubation,0.5 µg/mL
same,MIC,S. aureus GC 1131; Water pre-incubation,1 µg/mL
same,MIC,E. faecalis GC 2265; Mouse Serum pre-incubation,2 µg/mL
same,MIC,E. faecalis GC 2265; Water pre-incubation,4 µg/mL
same,MIC,E. coli GC 2272; Mouse Serum pre-incubation,1 µg/mL
same,MIC,E. coli GC 2272; Water pre-incubation,32 µg/mL
same,MIC,S. aureus GC 6466; Mouse Serum pre-incubation,0.25 µg/mL
same,MIC,S. aureus GC 6466; Water pre-incubation,0.5 µg/mL
same,MIC,S. epidermidis GC 4935; Mouse Serum pre-incubation,1 µg/mL
same,MIC,S. epidermidis GC 4935; Water pre-incubation,2 µg/mL
same,MIC,S. pneumoniae+ GC 4465; Mouse Serum pre-incubation,2 µg/mL
same,MIC,S. pneumoniae+ GC 4465; Water pre-incubation,4 µg/mL
same,MIC,E. faecalis GC 4555; Mouse Serum pre-incubation,1 µg/mL
same,MIC,E. faecalis GC 4555; Water pre-incubation,4 µg/mL
same,MIC,S. aureus GC 6469; Mouse Serum pre-incubation,2 µg/mL
same,MIC,S. aureus GC 6469; Water pre-incubation,4 µg/mL
same,MIC,E. faecium GC 2243; Mouse Serum pre-incubation,0.5 µg/mL
same,MIC,E. faecium GC 2243; Water pre-incubation,1 µg/mL
same,MIC,"c. albicans GC 3066; Candida albicans, GC3066",> 64 µg/mL
same,MIC,c. albicans GC 3066; [1],>64 UG/ML
same,MIC,E. coli GC 2236; Mouse Serum pre-incubation,2 µg/mL
same,MIC,E. coli GC 2236; Water pre-incubation,16 µg/mL
same,MIC,S. aureus GC 1079; Mouse Serum pre-incubation,2 µg/mL
same,MIC,S. aureus GC 1079; Water pre-incubation,2 µg/mL
same,MIC,S. pyogenes GC 4563; Mouse Serum pre-incubation,0.12 µg/mL
same,MIC,S. pyogenes GC 4563; Water pre-incubation,0.25 µg/mL
same,MIC,S. aureus GC 4536; Mouse Serum pre-incubation,1 µg/mL
same,MIC,S. aureus GC 4536; Water pre-incubation,1 µg/mL
same,MIC,E. coli GC 6465; Mouse Serum pre-incubation,8 µg/mL
same,MIC,E. coli GC 6465; Water pre-incubation,> 64 µg/mL
same,MIC,E. coli; [2],1 to 2 µg/mL
same,MIC,E. coli; [4],16 to 64 µg/mL
same,MIC,"E. coli; read-out: Range of MIC, E. coli (mouse serum)",1 to 2 µg/mL
same,MIC,"E. coli; read-out: Range of MIC, E. coli (water)",16 to 64 µg/mL
same,MIC,Staph.; [7],0.25 to 2 µg/mL
same,MIC,Staph.; [8],0.5 to 4 µg/mL
same,MIC,"Staph.; MRSA, read-out: Range of MIC, Staph. (mouse serum)",0.25 to 2 µg/mL
same,MIC,"Staph.; MRSA, read-out: Range of MIC, Staph. (water)",0.5 to 4 µg/mL
same,MIC,E. coli GC 1073; Mouse Serum pre-incubation,2 µg/mL
same,MIC,E. coli GC 1073; Water pre-incubation,32 µg/mL
same,MIC,E. coli GC 2233; Mouse Serum pre-incubation,2 µg/mL
same,MIC,E. coli GC 2233; Water pre-incubation,32 µg/mL
same,MIC,E. coli GC 2234; Mouse Serum pre-incubation,1 µg/mL
same,MIC,E. coli GC 2234; Water pre-incubation,32 µg/mL
